Assay results published in ChEMBL document CHEMBL1133765, “QSAR model for drug human oral bioavailability” (J Med Chem, 2000).

Key:
[1] = octanol/water
clinical = settings: human, in vivo, po
physchem [2] = test: physchem
physchem [3] = settings: octanol/water, pH 6.5
physchem [4] = settings: octanol/water
[5] = octanol/water; remark: listed apart in the source

CCCNC1CCc2nc(N)sc2C1 (stereo not drawn)
delta logD [1]: -0.9 | bioavailability (clinical; F): ≥ 80% | pKa (physchem [2]): 11 | logD (physchem [3]): -2.9

NC(=O)CCCCc1ccccc1
delta logD [1]: 0 | bioavailability (clinical; F): ≥ 80% | logD (physchem [3]): 0.13

O=[N+]([O-])C1O[C@H]2[C@H](OC[C@@H]2O)[C@@H]1O (stereo partly drawn)
delta logD [1]: 0 | bioavailability (clinical; F): ≥ 80% | logD (physchem [3]): -0.4

O=[N+]([O-])C1O[C@H]2[C@H](OC[C@H]2O)[C@H]1O (stereo partly drawn)
delta logD [1]: 0 | bioavailability (clinical; F): ≥ 80% | logD (physchem [3]): -0.15

CCO [ALCOHOL]
bioavailability (clinical; F): > 80%

Oc1ncnc2[nH]ncc12 [ALLOPURINOL]
delta logD [1]: 0 | bioavailability (clinical): ≥ 80% | logD (physchem [3]): -0.55

C=CCc1ccccc1OCC(O)CNC(C)C (stereo not drawn) [ALPRENOLOL]
delta logD [1]: -0.89 | bioavailability (clinical; F): ≤ 20% | logD (physchem [3]): 0.4

CCC1(CCC(C)C)C(=O)NC(=O)NC1=O [AMOBARBITAL]
delta logD [1]: 0.13 | bioavailability (clinical): ≥ 80% | logD (physchem [3]): 2.05

CC(C)NCC(O)COc1ccc(COCCOC(C)C)cc1 (stereo not drawn) [BISOPROLOL]
delta logD [1]: -0.89 | pKa (physchem [2]): 9.2 | logD (physchem [3]): -0.83

CCCCNc1cc(C(=O)O)cc(S(N)(=O)=O)c1Oc1ccccc1 [BUMETANIDE]
delta logD [1]: 0.9 | bioavailability (clinical; F): ≥ 80% | logD (physchem [3]): -1.84

NC(=O)N1c2ccccc2C=Cc2ccccc21 [CARBAMAZEPINE]
delta logD [1]: 0 | bioavailability (clinical; F): ≥ 80%

CC(C)(C)NCC(O)COc1cccc2c1CCC(=O)N2 (stereo not drawn) [CARTEOLOL]
delta logD [1]: -0.89 | bioavailability (clinical; F): ≥ 80% | pKa (physchem [2]): 9.2 | logD (physchem [3]): -1.35

CN(C)CCC(c1ccc(Cl)cc1)c1ccccn1 (stereo not drawn) [CHLORPHENIRAMINE]
delta logD [1]: -0.89 | logD (physchem [3]): 0.69

CCCNC(=O)NS(=O)(=O)c1ccc(Cl)cc1 [CHLORPROPAMIDE]
delta logD [1]: 0.89 | bioavailability (clinical; F): ≥ 80% | pKa (physchem [2]): 5 | logD (physchem [3]): 0.76

CN1C(=O)CC(=O)N(c2ccccc2)c2cc(Cl)ccc21 [CLOBAZAM]
delta logD [1]: 0 | bioavailability (clinical): ≥ 80% | logD (physchem [3]): 0.95

CN(C)CCCN1c2ccccc2CCc2ccc(Cl)cc21 [CLOMIPRAMINE]
logD (physchem [3]): 2.49

O=c1ccc2ccccc2o1 [COUMARIN]
bioavailability (clinical; F): < 20%

CC1=NS(=O)(=O)c2cc(Cl)ccc2N1 [DIAZOXIDE]
delta logD [1]: 0.03 | bioavailability (clinical; F): ≥ 80% | pKa (physchem [2]): 8.5 | logD (physchem [3]): 1.2

CC(C)N(CCC(C(N)=O)(c1ccccc1)c1ccccn1)C(C)C (stereo not drawn) [DISOPYRAMIDE]
delta logD [1]: -0.9 | bioavailability (clinical): ≥ 80% | pKa (physchem [2]): 10.4 | logD (physchem [3]): -1.08

O=c1[nH]c2ccccc2n1CCCN1CCC(n2c(=O)[nH]c3cc(Cl)ccc32)CC1 [DOMPERIDONE]
logD (physchem [4]; pH 6.5): 2.83

N#Cc1ccccc1OCC(O)CNCCNC(=O)Cc1ccc(O)cc1 (stereo not drawn) [EPANOLOL]
delta logD [1]: -0.77 | bioavailability (clinical; F): ≤ 20% | pKa (physchem [2]): 7.8 | logD (physchem [3]): -0.4

CCc1cccc2c3c([nH]c12)C(CC)(CC(=O)O)OCC3 (stereo not drawn) [ETODOLAC]
bioavailability (clinical; F): ≥ 80% | pKa (physchem [2]): 4.7

O=C(NCC1CCCCN1)c1cc(OCC(F)(F)F)ccc1OCC(F)(F)F (stereo not drawn) [FLECAINIDE]
delta logD [1]: -0.9 | bioavailability (clinical; F): ≥ 80% | logD (physchem [3]): 0.24

CC(C(=O)O)c1ccc(-c2ccccc2)c(F)c1 (stereo not drawn) [FLURBIPROFEN]
delta logD [1]: 0.9 | bioavailability (clinical): ≥ 80% | pKa (physchem [2]): 4.2 | logD (physchem [3]): 1.81

Cc1ccc(C)c(OCCCC(C)(C)C(=O)O)c1 [GEMFIBROZIL]
delta logD [1]: 0.89 | bioavailability (clinical; F): ≥ 80% | pKa (physchem [2]): 4.8 | logD (physchem [3]): 1.47

COc1ccc(Cl)cc1C(=O)NCCc1ccc(S(=O)(=O)NC(=O)NC2CCCCC2)cc1 [GLYBURIDE]
delta logD [1]: 0.87 | bioavailability (clinical; F): ≥ 80% | pKa (physchem [2]): 5.3 | logD (physchem [3]): 1.85

CN1C(=O)NC(=O)C(C)(C2=CCCCC2)C1=O (stereo not drawn) [HEXOBARBITAL]
delta logD [1]: 0.04 | bioavailability (clinical): ≥ 80% | pKa (physchem [2]): 8.3 | logD (physchem [3]): 1.48

NNc1nncc2ccccc12 [HYDRALAZINE]
delta logD [1]: -0.61 | bioavailability (clinical; F): ≤ 20% | logD (physchem [3]): 0.14

Nc1cc(-c2ccncc2)c[nH]c1=O [INAMRINONE]
delta logD [1]: -0.02 | bioavailability (clinical; F): ≥ 80% | pKa (physchem [2]): 5.2 | logD (physchem [3]): -0.72

CNC1(c2ccccc2Cl)CCCCC1=O (stereo not drawn) [KETAMINE]
bioavailability (clinical): ≤ 20% | logD (physchem [3]): 1.14

O=C(c1ccccc1)c1ccc2n1CCC2C(=O)O (stereo not drawn) [KETOROLAC]
delta logD [1]: 0.9 | bioavailability (clinical; F): ≥ 80% | logD (physchem [3]): -1.34

Cc1c(OCC(F)(F)F)ccnc1C[S+]([O-])c1nc2ccccc2[nH]1 (stereo not drawn) [LANSOPRAZOLE]
bioavailability (clinical): ≥ 80% | logD (physchem [3]): 1.73

CN(CCCN1c2ccccc2CCc2ccccc21)CC(=O)c1ccc(Cl)cc1 [LOFEPRAMINE]
delta logD [1]: -0.32 | bioavailability (clinical; F): ≤ 20% | pKa (physchem [2]): 6.7 | logD (physchem [3]): 4.58

O=C1Nc2ccc(Cl)cc2C(c2ccccc2Cl)=NC1O (stereo not drawn) [LORAZEPAM]
delta logD [1]: 0 | bioavailability (clinical): ≥ 80%

CC[C@H](C)C(=O)O[C@H]1C[C@@H](C)C=C2C=C[C@H](C)[C@H](CC[C@@H]3C[C@@H](O)CC(=O)O3)[C@H]21 [LOVASTATIN]
delta logD [1]: 0 | logD (physchem [3]): 4.26

CC(C)(C)NCC(O)c1cc(Cl)c(N)c(C(F)(F)F)c1 (stereo not drawn) [MABUTEROL]
delta logD [1]: -0.9 | bioavailability (clinical): ≥ 80% | pKa (physchem [2]): 9.7 | logD (physchem [3]): -0.03

COC(=O)Nc1nc2ccc(C(=O)c3ccccc3)cc2[nH]1 [MEBENDAZOLE]
delta logD [1]: 0 | bioavailability (clinical; F): ≤ 20% | logD (physchem [3]): 2.83

CCC1(c2cccc(O)c2)CCCCN(C)C1 (stereo not drawn) [MEPTAZINOL]
delta logD [1]: -0.88 | bioavailability (clinical): ≤ 20% | pKa (physchem [2]): 8.7 | logD (physchem [3]): 0.71

Sc1ncnc2nc[nH]c12 [MERCAPTOPURINE ANHYDROUS]
delta logD [1]: -0.72 | bioavailability (clinical; F): ≤ 20% | pKa (physchem [2]): 7.6 | logD (physchem [3]): -1.12

COCCc1ccc(OCC(O)CNC(C)C)cc1 (stereo not drawn) [METOPROLOL]
bioavailability (clinical; F): 49% | logD (physchem [4]; pH 6.5, logD): -1.32

Cc1ncc([N+](=O)[O-])n1CCO [METRONIDAZOLE]
delta logD [1]: 0 | bioavailability (clinical; F): ≥ 80%

Cc1[nH]c(=O)c(C#N)cc1-c1ccncc1 [MILRINONE]
delta logD [1]: -0.02 | bioavailability (clinical; F): ≥ 80% | pKa (physchem [2]): 5.2 | logD (physchem [3]): 0.68

COc1ccc2cc(CCC(C)=O)ccc2c1 [NABUMETONE]
delta logD [1]: 0 | bioavailability (clinical; F): ≤ 20% | logD (physchem [3]): 2.83

Cc1ccnc2c1NC(=O)c1cccnc1N2C1CC1 [NEVIRAPINE]
bioavailability (clinical): ≥ 80% | logD (physchem [3]): 1.92

COC(=O)C1=C(C)NC(C)=C(C(=O)OC)C1c1ccccc1[N+](=O)[O-] [NIFEDIPINE]
bioavailability (clinical): 79%

O=C(O)CCc1nc(-c2ccccc2)c(-c2ccccc2)o1 [OXAPROZIN]
delta logD [1]: 0.84 | bioavailability (clinical; F): ≥ 80% | pKa (physchem [2]): 5.8 | logD (physchem [3]): 3.41

O=C1OC(c2ccc(O)cc2)(c2ccc(O)cc2)c2ccccc21 [PHENOLPHTHALEIN]
delta logD [1]: 0 | bioavailability (clinical; F): ≤ 20% | logD (physchem [3]): 2.41

O=c1[nH]c2ccccc2n1C1CCN(CCCC(c2ccc(F)cc2)c2ccc(F)cc2)CC1 [PIMOZIDE]
logD (physchem [4]; pH 6.5): 5.42 | pKa (physchem [2]): 7.3

CC1CCCC(C)N1CCCC(O)(c1ccccc1)c1ccccn1 (stereo not drawn) [PIRMENOL]
delta logD [1]: -0.9 | bioavailability (clinical; F): ≥ 80% | pKa (physchem [2]): 10.2 | logD (physchem [3]): -0.53

C[C@]12C=CC(=O)C=C1CC[C@@H]1[C@@H]2[C@@H](O)C[C@@]2(C)[C@H]1CC[C@]2(O)C(=O)CO [PREDNISOLONE]
delta logD [5]: 0

C[C@]12C=CC(=O)C=C1CC[C@@H]1[C@@H]2C(=O)C[C@@]2(C)[C@H]1CC[C@]2(O)C(=O)CO [PREDNISONE]
delta logD [5]: 0 | bioavailability (clinical; F): > 80%

CCCN(CCC)S(=O)(=O)c1ccc(C(=O)O)cc1 [PROBENECID]
delta logD [1]: 0.9 | bioavailability (clinical; F): ≥ 80% | pKa (physchem [2]): 3.4 | logD (physchem [3]): 0.11

CC(=O)[C@H]1CC[C@H]2[C@@H]3CCC4=CC(=O)CC[C@]4(C)[C@H]3CC[C@]12C [PROGESTERONE]
delta logD [5]: 0 | bioavailability (clinical): < 20%

C1COC(NC(C2CC2)C2CC2)=N1 [RILMENIDINE]
delta logD [1]: -0.9 | bioavailability (clinical; F): ≥ 80% | pKa (physchem [2]): 9.3 | logD (physchem [3]): -0.94

Nc1ccc(S(=O)(=O)Nc2ncccn2)cc1 [SULFADIAZINE]
delta logD [1]: 0.65 | bioavailability (clinical; F): ≥ 80% | logD (physchem [3]): -0.39

CN1C(C(=O)Nc2ccccn2)=C(O)c2sccc2S1(=O)=O [TENOXICAM]
delta logD [1]: 0.88 | bioavailability (clinical; F): ≥ 80% | pKa (physchem [2]): 5.1 | logD (physchem [3]): 0.56

CCN(CC)C(=O)N[C@H]1C[C@@H]2c3cccc4[nH]cc(c34)C[C@H]2N(C)C1 [TERGURIDE]
delta logD [1]: -0.32 | bioavailability (clinical): ≤ 20% | pKa (physchem [2]): 6.8 | logD (physchem [3]): 2.05

C[C@]12CC[C@H]3[C@@H](CCC4=CC(=O)CC[C@@]43C)[C@@H]1CC[C@@H]2O [TESTOSTERONE]
delta logD [5]: 0 | bioavailability (clinical): < 20%

Cc1cccc(C)c1NC(=O)C(C)N (stereo not drawn) [TOCAINIDE]
delta logD [1]: -0.78 | bioavailability (clinical; F): ≥ 80% | logD (physchem [3]): -0.56

CCCCNC(=O)NS(=O)(=O)c1ccc(C)cc1 [TOLBUTAMIDE]
bioavailability (clinical; F): ≥ 80% | pKa (physchem [2]): 5.3

Cc1ccc(C(=O)c2ccc(CC(=O)O)n2C)cc1 [TOLMETIN]
delta logD [1]: 0.9 | bioavailability (clinical; F): ≥ 80% | logD (physchem [3]): -0.21

COc1cc(Cc2cnc(N)nc2N)cc(OC)c1OC [TRIMETHOPRIM]
bioavailability (clinical; F): > 80%

CCCC(CCC)C(=O)O [VALPROIC ACID]
delta logD [1]: 0.89 | bioavailability (clinical; F): ≥ 80% | logD (physchem [3]): 1.04

COc1ccc(C(CN(C)C)C2(O)CCCCC2)cc1 (stereo not drawn) [VENLAFAXINE]
bioavailability (clinical): ≤ 20% | logD (physchem [3]): -2.29

O=C(NCCNCC(O)COc1ccc(O)cc1)N1CCOCC1 (stereo not drawn) [XAMOTEROL]
delta logD [1]: -0.78 | bioavailability (clinical; F): ≤ 20% | pKa (physchem [2]): 7.8 | logD (physchem [3]): -0.8
